This note sets out measurements from patent US8258098B2, “Antitumoral treatments” (Pharma Mar, S.A., priority 2006, dated 2012).

The test system of one experiment is HL60 cells. Put plainly: MTS cytotoxicity assay, 72 hours, single agents and combinations with Aplidine. The class given is cell-based. To be noted: read-out: IC50 (Molar). On the procedure:
(§1) Day before plating cells all cultures were fed with fresh, complete growth media. On the harvest (plating) day cells were counted by Trypan Blue exclusion staining method (basic cell culture). Cells were harvested and seeded in 96 well microtiter plates at 10,000 cells per well in 190 μL of media and incubated for 24 hours to allow the cells to attach before drug addition. Cells were treated with the drugs and the cytotoxic effect was measured by the MTS Assay (Tetrazolium), which is a colorimetric method for determining the number of viable cells. After the 72 hours of incubation with drug, 25 μL of MTS+PMS solution was added to each microtiter well and incubated for 4 hours at 37° C. Plates were then removed from incubator and placed on plate shaker for 5 minutes (covered with aluminium foil for protection from light). Optical densities were read at 490 nm on spectrophotometer plate reader.
(§2) The microtiter plates were incubated for 72 hrs, at 5% CO2 and 37° C. The cytotoxic effect was measured by MTS Assay. Optical densities read at 490 nm. Normalized data was plotted and interpreted as described. Data was analysed as: • 1. Prism (Graphpad) software program was used to normalized the data to control values (100%=cell growth in the absence of agent (drug); 0%=blank control). • 2. Data normalized were plotted as scatter plots.
(§3) Conversely, antagonism was concluded when inhibition was lower than both maxima. […] Statistical significance was assessed by performing a student's t-test on the inhibition at each dose ratio versus the inhibition at the maximum for each drug.
(§4) As a visual aid, response values were plotted on a scatter plot with dose ratios given on the x-axis and % response values on the y-axis. […] In cases where response values at the two endpoints were approximately equivalent, points lying above or below this predicted line of additivity could be interpreted as representing antagonistic or synergistic drug interaction, respectively.
In general terms: Tetrazolium dyes change colour on reduction, which living cells bring about.

The test system of the next experiment is MX1 cells. The experiment is described as above. The class given is cell-based. The conditions noted are these: MX1, 72 hours drug exposure, read-out: IC50 (Molar). On the procedure:
as §1, §2, §3, §4

The test system of another experiment is MOLT3 cells. The description is as above. The class given is cell-based. The conditions noted are these: read-out: IC50 (Molar). On the procedure: as §1, §2, §3, §4
In a further experiment the test system is A549 cells. Described as above. The class given is cell-based. The conditions noted are these: A549, 72 hours drug exposure, read-out: IC50 (Molar). On the procedure: as §1, §2, §3, §4
For another experiment, the system named is HT29 cells. The experiment is described as above. The class given is cell-based. The conditions noted are these: read-out: IC50 (Molar). On the procedure:
as §1, §2, §3, §4

A further experiment concerns SKBR3 cells. The experiment is described as above. The class given is cell-based. The conditions noted are these: read-out: IC50 (Molar). On the procedure:
as §1, §2, §3, §4

For another experiment, the system named is PC3 cells. The description is as above. The class given is cell-based. The conditions noted are these: read-out: IC50 (Molar). On the procedure: as §1, §2, §3, §4
The subject of the next experiment is RPMI-8226 cell line. Kind of experiment: cells. In kind it is cell-based. The conditions noted are these: Homo sapiens, RPMI-8226, 72 h, read-out: IC50 (Molar). On the procedure: (§5) These cell lines were cultured in RPMI1640 medium with 10% FBS and 1% L-Glutamine. Each cell line was plated in a 96 well plates at 20,000 cell per well.
(§6) Each serial dilution was paired with 4 different concentrations of Bortezomib or Melphalan.
(§7) The plates were incubated for 3 days at 37° C. and 5% CO2. The plates were read using the Promega MTS assay system with MTS being metabolized by living cells turning into formazan which is […] at 490 nm wavelength. This is an indirect measure of cell viability. These were analyzed using the Softmax Pro program which determines cell viability based percent of control wells. This IC50 data was then transferred into the CalcuSyn program for combination index analysis. CalcuSyn compares IC50 the values of the drugs alone with that of the drugs in combination using an algorithm to determine a combination index.

In the next experiment the test system is U266B1 cell line. Kind of experiment: cells. In kind it is cell-based. To be noted: 72 h, read-out: IC50 (Molar). On the procedure:
as §5, §6, §7

For experiment [1], the system named is RPMI 8226 human myeloma cells. Kind of experiment: Antitumor efficacy against subcutaneous-implanted myeloma xenograft. The class given is in vivo, male, SCID mice. To be noted: RPMI 8226 xenograft, median tumor weight; Aplidine 60 μg/kg/dose IP q1d × 9 day 18, 38; Bortezomib 0.35 mg/kg/dose IV. On the procedure: The animals were housed in microisolator cages, up to five per cage in a 12-hour light/dark cycle. Six-weeks-old male, SCID mice were acclimated in the laboratories for one week prior to the experiment.
Each mouse received 2×10^7 cells resuspended in 0.2 mL of Matrigel®. […] Cells were harvested after four passages in culture. The cells were removed from the flasks, placed in 50-mL centrifuge tubes and centrifuged at 1,000 rpm for 10 minutes in a refrigerated centrifuge. The cell pellets were resuspended in fresh complete medium. The cell count and viability were determined with a Beckman Coulter VI CELL XR cell counter and viability analyzer. The cell suspension was recentrifuged, and the cell pellet was resuspended in Matrigel® at a cell density of 1.0×10^8 cells/mL and placed on wet ice.
The day of tumor cell inoculation was designated as Day 0. […] Those animals selected with tumors in the proper size range were assigned to four treatment groups so that the median tumor weights on the first day of treatment were as close to each other as possible. […]
Animals were observed daily and clinical signed were noted. The s.c. tumors were measured and the animals were weighed twice weekly starting with the first day of treatment, Day 18 after tumor cell inoculation.

Where [2] appears, read: Homo sapiens, HL-60, HL60, 72 hours drug exposure.
The mark [3] stands for this setting: Homo sapiens, MOLT-3, MOLT3, 72 hours drug exposure.
The mark [4] stands for this setting: Homo sapiens, HT-29, HT29, 72 hours drug exposure.
Setting [5] is: Homo sapiens, SK-BR-3, SKBR3, 72 hours drug exposure.

pIC50: −log10 of the molar value. Read-outs that look alike come from different tables or passages of the source. Where only a bound is given, the exact number is not on record here.

`Nc1ccn([C@@H]2O[C@H](CO)[C@@H](O)[C@@H]2O)c(=O)n1` [AraC, cytosine arabinoside]: the pIC50 (as a rule, −log10 of the IC50, conventionally taken in molar units) with HL60 cells (HL60, 72 hours drug exposure) is 5.00; with MX1 cells, < 4.00; in the experiment on MOLT3 cells (MOLT3, 72 hours drug exposure), 6.66; in the experiment on A549 cells, < 4.00; with HT29 cells (HT29, 72 hours drug exposure), < 4.00; with SKBR3 cells (SKBR3, 72 hours drug exposure), < 4.00. In addition, the pIC50 in the experiment on PC3 cells (PC3, 72 hours drug exposure) is < 4.00.

As for `COc1cccc2c1C(=O)c1c(O)c3c(c(O)c1C2=O)C[C@@](O)(C(=O)CO)C[C@@H]3O[C@H]1C[C@H](N)[C@H](O)[C@H](C)O1` [doxorubicin], the pIC50 in the experiment on HL60 cells (setting [2]) was < 4.00; in the experiment on MX1 cells (Homo sapiens) it was < 4.00; in the experiment on MOLT3 cells (setting [3]), 8.16; in the experiment on A549 cells (Homo sapiens) it was 5.89; with HT29 cells (setting [4]), < 4.00; with SKBR3 cells (setting [5]), 6.54. Also, the pIC50 in the experiment with PC3 cells (Homo sapiens, PC-3, PC3, 72 hours drug exposure) was 4.96.

Take `N[C@@H](Cc1ccc(N(CCCl)CCCl)cc1)C(=O)O` [Melphalan]: the values for the pIC50 in the experiment on RPMI-8226 cell line and in the experiment with U266B1 cell line were 4.79 and 8.50, respectively.

On to `CCc1c2c(nc3ccc(O)cc13)-c1cc3c(c(=O)n1C2)COC(=O)[C@]3(O)CC` [SN38, 7-ethyl-10-hydroxycamptothecin], for which the pIC50 in the experiment on HL60 cells (HL60, 72 hours drug exposure) was > 6.00; in the experiment with MX1 cells it was 6.82; with MOLT3 cells (MOLT3, 72 hours drug exposure) it was 6.00; in the experiment on A549 cells, 2.89; with HT29 cells (HT29, 72 hours drug exposure), 6.92; with SKBR3 cells (SKBR3, 72 hours drug exposure), > 11.00. In the experiment on PC3 cells (PC3, 72 hours drug exposure), the pIC50 was 4.34.

Turning to arsenic trioxide, the negative-log IC50 (pIC50) in the experiment on HL60 cells (HL60, 72 hours drug exposure) was 4.70; in the experiment on MX1 cells, 4.01; in the experiment with MOLT3 cells (MOLT3, 72 hours drug exposure), 5.43; with A549 cells, 3.38; in the experiment with HT29 cells (HT29, 72 hours drug exposure) it was 4.10; with SKBR3 cells (SKBR3, 72 hours drug exposure) it was 4.00. The pIC50 in the experiment on PC3 cells (PC3, 72 hours drug exposure) is 2.92.

For the molecule `CC(C)C[C@H](NC(=O)[C@H](Cc1ccccc1)NC(=O)c1cnccn1)B(O)O` [Bortezomib], the pIC50 in the experiment with RPMI-8226 cell line (RPMI8226, MTS) is 8.64. The pIC50 in the experiment on U266B1 cell line (U2661, MTS) was 4.78. Besides, in experiment [1], the “% T/C on day 27” value came out at 70% and the “% T/C on day 48” value was found to be 67%.

As to `CC(=O)O[C@H]1C(=O)[C@@]2(C)[C@H]([C@H](OC(=O)c3ccccc3)[C@]3(O)C[C@H](OC(=O)[C@H](O)[C@@H](NC(=O)c4ccccc4)c4ccccc4)C(C)=C1C3(C)C)[C@]1(OC(C)=O)CO[C@@H]1C[C@@H]2O` [paclitaxel], the negative-log IC50 (pIC50) in the experiment with HL60 cells (setting [2]) is 7.80; with MX1 cells (Homo sapiens), 5.03; in the experiment with MOLT3 cells (setting [3]), 4.11; in the experiment on A549 cells (Homo sapiens) it was 7.89; with HT29 cells (setting [4]), 8.30; with SKBR3 cells (setting [5]) it was < 4.00.

As to `N.N.[Cl][Pt][Cl]` [cisplatin], the pIC50 in the experiment on HL60 cells (HL60, 72 hours drug exposure) was 4.92; with MX1 cells it was 3.77; in the experiment with MOLT3 cells (MOLT3, 72 hours drug exposure), 6.24; with A549 cells it was 5.22; with HT29 cells (HT29, 72 hours drug exposure), 3.14; in the experiment on SKBR3 cells (SKBR3, 72 hours drug exposure), 5.15. The pIC50 in the experiment on PC3 cells (PC3, 72 hours drug exposure) is 4.06.
